Assay results from patent publication US20110301200A1, “THYROID RECEPTOR LIGANDS” (CADILA HEALTHCARE LIMITED, priority 2008, published 2011).

Assays:
TR-α = molecular target: T1, TR-α (Homo sapiens, UniProt P10827); experiment: In vitro TR-α activity (in-house protocol); format: cell-based
T1 sequence (P10827 1-410 isoform P10827-2): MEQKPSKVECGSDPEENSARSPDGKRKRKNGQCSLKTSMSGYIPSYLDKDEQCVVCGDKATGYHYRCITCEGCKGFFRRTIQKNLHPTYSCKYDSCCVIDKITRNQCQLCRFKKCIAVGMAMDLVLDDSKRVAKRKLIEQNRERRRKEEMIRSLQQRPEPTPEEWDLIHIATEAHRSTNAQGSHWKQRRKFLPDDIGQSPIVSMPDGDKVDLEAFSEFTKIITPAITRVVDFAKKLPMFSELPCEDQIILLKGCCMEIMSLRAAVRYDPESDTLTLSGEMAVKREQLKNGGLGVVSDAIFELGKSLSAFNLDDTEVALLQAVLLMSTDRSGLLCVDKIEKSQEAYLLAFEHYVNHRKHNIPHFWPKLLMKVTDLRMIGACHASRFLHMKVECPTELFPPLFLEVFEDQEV
Protocol: (§1) In vitro TR-α & TR-β activities were determined as per in-house protocols and the results of representative compounds are provided in tables 1 & 2 below as a proof of the efficacies of the novel class of compounds disclosed above.

cholesterol-fed rats = experiment: Cholesterol lowering and change in heart rate in cholesterol-fed rats; format: in vivo, rat; settings: treated for 7 days
Protocol: Cholesterol lowering effect of T3 and selected compounds disclosed in the present invention on cholesterol lowering and change in heart rate in cholesterol-fed rats (treated for 7 days) was determined according to the general protocol described in PNAS, vol. […] Therefore, these compounds have the potential to be further developed as selective TR-beta agonists for the treatment of human & other animals in need of such treatment.

TR-β = molecular target: T2, TR-β (Homo sapiens, UniProt P10828); experiment: In vitro TR-β activity (in-house protocol); format: cell-based
T2 sequence (P10828 1-461): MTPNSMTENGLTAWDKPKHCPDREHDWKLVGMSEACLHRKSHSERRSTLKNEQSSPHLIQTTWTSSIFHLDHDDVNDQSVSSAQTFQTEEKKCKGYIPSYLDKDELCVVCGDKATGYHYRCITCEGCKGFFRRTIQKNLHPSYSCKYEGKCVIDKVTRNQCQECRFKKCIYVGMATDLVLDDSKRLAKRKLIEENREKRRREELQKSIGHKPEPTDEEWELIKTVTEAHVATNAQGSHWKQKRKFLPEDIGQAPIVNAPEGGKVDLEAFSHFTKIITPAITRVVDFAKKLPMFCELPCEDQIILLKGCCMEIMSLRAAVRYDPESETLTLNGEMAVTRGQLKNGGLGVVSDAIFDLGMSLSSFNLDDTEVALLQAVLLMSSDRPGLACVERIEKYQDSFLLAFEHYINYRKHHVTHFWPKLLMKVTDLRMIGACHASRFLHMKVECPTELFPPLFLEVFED
Protocol: as §1

SMILES	fold induction at 0.001 µM (TR-α; Conc. 1 nM, read-out: TR-α Fold Induction w.r.t T3(100 nm))	fold induction at 0.01 µM (TR-α; Conc. 10 nM, read-out: TR-α Fold Induction w.r.t T3(100 nm))	fold induction at 0.1 µM (TR-α; Conc. 100 nM, read-out: TR-α Fold Induction w.r.t T3(100 nm))	fold induction at 1 µM (TR-α; Conc. 1000 nM, read-out: TR-α Fold Induction w.r.t T3(100 nm))	% Change in Heart Rate (cholesterol-fed rats; oral 0.5 mg/kg) [%]	% Change in Total Cholesterol (cholesterol-fed rats; oral 0.5 mg/kg) [%]	fold induction at 0.001 µM (TR-β; Conc. 1 nM, read-out: TR-β Fold Induction w.r.t T3(100 nm))	fold induction at 0.01 µM (TR-β; Conc. 10 nM, read-out: TR-β Fold Induction w.r.t T3(100 nm))	fold induction at 0.1 µM (TR-β; Conc. 100 nM, read-out: TR-β Fold Induction w.r.t T3(100 nm))	fold induction at 1 µM (TR-β; Conc. 1000 nM, read-out: TR-β Fold Induction w.r.t T3(100 nm))	EC50 (TR-α) [nM]	% Change in Heart Rate (cholesterol-fed rats; oral 0.2 mg/kg) [%]	% Change in Total Cholesterol (cholesterol-fed rats; oral 0.2 mg/kg) [%]	EC50 (TR-β) [nM]	% Change in Heart Rate (cholesterol-fed rats; oral 0.1 mg/kg) [%]	% Change in Total Cholesterol (cholesterol-fed rats; oral 0.1 mg/kg) [%]
CC(C)c1cc(Oc2c(Br)cc(C=NOCC(=O)O)cc2Br)ccc1O [Example 3, 2-(((3,5-dibromo-4-(4-hydroxy-3-isopropylphenoxy)benzylidene)amino)oxy)acetic acid]	18.3	38.5	93.8	133	4.2	−68	17.7	49.5	92.1	138						
CC(ON=Cc1cc(Br)c(Oc2ccc(O)c(C(C)C)c2)c(Br)c1)C(=O)O (stereo not drawn) [Example 10, 2-(((3,5-dibromo-4-(4-hydroxy-3-isopropylphenoxy)benzylidene)amino)oxy)propanoic acid]											25	9.5	−45	3.25		
CCC(C)c1cc(Oc2c(Br)cc(C=NOC(C)C(=O)O)cc2Br)ccc1O (stereo not drawn) [Example 14, 2-(((3,5-dibromo-4-(3-(sec-butyl)-4-hydroxyphenoxy)benzylidene)amino)oxy)propanoic acid]											5.12			0.99	−2	−44
